In publication PMC10310857 (Nature Communications, 2023):
Where “and” joins values, the source holds several entries; their conditions need not be identical. Identical values can stand only once.

Tests used:
GhMPK6 = tested on: GhMPK6; set-up: species or system Gossypium hirsutum cv. Lvmian; settings: in vivo
GhRbohD = tested on: GhRbohD; set-up: species or system Gossypium hirsutum cv. Lvmian; settings: in vivo

O=C(NO)c1ccccc1 [Compound 1, benzohydroxamic acid] was tested, and the “GhMPK6 expression in cotton roots (Fig. 3e) Mean” value (GhMPK6) was 2.326 and 2.211 and 2.747 and 2.402 and the “GhRbohD expression in cotton roots (Fig. 3f) Mean” value (GhRbohD) was 6.888 and 6.864 and 7.067 and 8.206.
